These results are taken from patent publication US10258612B2, “Mitochondrial lipid permeable iron chelators for treating and preventing ischemia/reperfusion (I/R) injury in the heart following an ischemic event” (Northwestern University, priority 2015, dated 2019).

The conditions of series [1]: cited from earlier work.
Series [2] can be described thus: Complete blood count and serum iron parameters in wild-type mice with chelator treatment. The settings on record: iron chelators for 3 weeks, n = 5, mean±SEM. Format: in vivo. How it is done: To test the use of these iron chelators in the setting of I/R, mice were pretreated for a week with these chelators and then subjected to I/R or sham operation. Chelation was continued for two weeks after the operation. […] To rule out any changes of serum iron hematopoiesis that can account for the cardiac functional difference, we performed complete blood counts and measured serum iron parameters in wild-type mice treated with iron chelators for 3 weeks.
Mice were treated with 80 mg/kg BPD (Sigma) in normal saline solution daily or 50 mg/kg DFO (Sigma) in normal saline every other day via intraperitoneal injection. The dose of BPD was chosen based on its ability to modulate cardiac mitochondrial iron, and the dose of DFO was chosen according to previously published studies (Ichikawa et al., 2014). BPD was prepared as a 400 mg/ml stock solution in ethanol and diluted 1:100 in normal saline to working concentration. DFO was prepared as a 250 mg/ml stock in water and diluted 1:100 in normal saline to working concentration.

The term log P denotes a log measure of how a compound divides between an organic and an aqueous phase.

`CC(=O)N(O)CCCCCNC(=O)CCC(=O)N(O)CCCCCNC(=O)CCC(=O)N(O)CCCCCN` [DFO, deferoxamine]: the log partition coefficient (log P) in series [1] is on record as −0.614. In series [2], the Hematocrit stood at 47.02 ± 2.25%, the Hemoglobin was 12.96 ± 0.53 g/dL, the “Iron Saturation” value is 18.66 ± 1.68 % and the MCH is on record as 13.28 ± 0.12 pg. Also, in series [2], the MCHC is listed as 27.62 ± 0.32 g/dL, the MCV is given as 48.1 ± 0.31 fL, the Platelet is 711.6 ± 139.86 10^3/μL and the RBC is reported as 9.77 ± 0.43 10^6/μL. In series [2], the RDW came out at 17 ± 0.32%, the “Serum Iron” value is 53.37 ± 6.63 µg/dL, the “Total Iron Binding Capacity” value stood at 281.21 ± 12.76 µg/dL and the “Unsaturated Iron Binding Capacity” value turned out to be 227.85 ± 7.71 µg/dL. For the same compound, the WBC in series [2] was 6.62 ± 0.85 10^3/μL.
